Measurements from PubChem BioAssay AID1963837 (Molecular Pharmacology Branch, DTP, NCI, 2024).

System: 843126-344-R-J1-PDC complex spheroid viability
Experiment: Anticancer human tumor 843126-344-R-J1-PDC patient-derived melanoma cell line growth inhibition [POLQ]
Details: for IC50: curve of first compound; for viability, T/C: stronger effect = lower value
Procedure, shortened: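 Growth inhibition in 3D: complex spheroids (tumor PDC, HUVEC, MSC) treated with POLQ inhibitor combinations; where Cmax unknown, highest tested concentration 10 microM, except SN-38 at 1 microM.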

[1] = second compound 0.0316 µM, first compound 0.0316 µM
[2] = second compound 0.0316 µM, first compound 0.1 µM
[3] = second compound 0.0316 µM, first compound 0.316 µM
[4] = second compound 0.0316 µM, first compound 1 µM
[5] = second compound 0.0316 µM, first compound 3.16 µM
[6] = second compound 0.0316 µM, first compound 10 µM
[7] = second compound 0.1 µM, first compound 0.0316 µM
[8] = second compound 0.1 µM, first compound 0.1 µM
[9] = second compound 0.1 µM, first compound 0.316 µM
[10] = second compound 0.1 µM, first compound 1 µM
[11] = second compound 0.1 µM, first compound 3.16 µM
[12] = second compound 0.1 µM, first compound 10 µM
[13] = second compound 0.316 µM, first compound 0.0316 µM
[14] = second compound 0.316 µM, first compound 0.1 µM
[15] = second compound 0.316 µM, first compound 0.316 µM
[16] = second compound 0.316 µM, first compound 1 µM
[17] = second compound 0.316 µM, first compound 3.16 µM
[18] = second compound 0.316 µM, first compound 10 µM
[19] = second compound 1 µM, first compound 0.0316 µM
[20] = second compound 1 µM, first compound 0.1 µM
[21] = second compound 1 µM, first compound 0.316 µM
[22] = second compound 1 µM, first compound 1 µM
[23] = second compound 1 µM, first compound 3.16 µM
[24] = second compound 1 µM, first compound 10 µM
[25] = second compound 3.16 µM, first compound 0.0316 µM
[26] = second compound 3.16 µM, first compound 0.1 µM
[27] = second compound 3.16 µM, first compound 0.316 µM
[28] = second compound 3.16 µM, first compound 1 µM
[29] = second compound 3.16 µM, first compound 3.16 µM
[30] = second compound 3.16 µM, first compound 10 µM
[31] = second compound 10 µM, first compound 0.0316 µM
[32] = second compound 10 µM, first compound 0.1 µM
[33] = second compound 10 µM, first compound 0.316 µM
[34] = second compound 10 µM, first compound 1 µM
[35] = second compound 10 µM, first compound 3.16 µM
[36] = second compound 10 µM, first compound 10 µM
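For viability, T/C in this document: spheroids exposed to drugs for seven days before readout.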

Compound `COc1cc2cc(C(=O)CCC(=O)O)sc2cc1OC` + Nc1ccc(C#CCN(C(=O)Cc2ncc(C(F)(F)F)cc2C(F)(F)F)c2ccc(F)cc2)nn1 has an IC50 (second compound 0.0316 µM) of over 10000 nM, an IC50 (second compound 0.1 µM) of over 10000 nM and an IC50 (second compound 0.316 µM) of over 10000 nM. The IC50 (second compound 1 µM) was over 10000 nM, the IC50 (second compound 3.16 µM) was over 10000 nM and the IC50 (second compound 10 µM) was over 10000 nM. For the same compound, the viability, T/C [1] was 84.1%, the viability, T/C [2] was 82.5% and the viability, T/C [3] was 81.6%. It also gave a viability, T/C [4] of 99.8%, a viability, T/C [5] of 90.2% and a viability, T/C [6] of 89.2%. For the same compound, the viability, T/C [7] was 77.8%, the viability, T/C [8] was 103% and the viability, T/C [9] was 92%. For the same compound, the viability, T/C [10] was 102%, the viability, T/C [11] was 89.9% and the viability, T/C [12] was 107%. It also gave a viability, T/C [13] of 96.1%, a viability, T/C [14] of 94.2% and a viability, T/C [15] of 104%. It also gave a viability, T/C [16] of 96.7%, a viability, T/C [17] of 108% and a viability, T/C [18] of 82.3%. It also gave a viability, T/C [19] of 96.7%, a viability, T/C [20] of 77.7% and a viability, T/C [21] of 93.8%. It also gave a viability, T/C [22] of 83.2%, a viability, T/C [23] of 90.1% and a viability, T/C [24] of 76.8%. It also gave a viability, T/C [25] of 96.9%, a viability, T/C [26] of 83.7% and a viability, T/C [27] of 89.1%. For the same compound, the viability, T/C [28] was 86%, the viability, T/C [29] was 94.7% and the viability, T/C [30] was 91%. It also gave a viability, T/C [31] of 77.2%, a viability, T/C [32] of 84.3% and a viability, T/C [33] of 92.2%. The viability, T/C [34] was 79.1%, the viability, T/C [35] was 92.7% and the viability, T/C [36] was 94.1%.

With `Nc1ccn(C2OC(CO)C(O)C2(F)F)c(=O)n1` (stereo unspecified) + COC1C(OC(N)=O)C(O)C(Oc2ccc3c(O)c(NC(=O)c4ccc(O)c(CC=C(C)C)c4)c(=O)oc3c2C)OC1(C)C the IC50 (second compound 0.0316 µM) was under 31.6 nM, the IC50 (second compound 0.1 µM) was under 31.6 nM and the IC50 (second compound 0.316 µM) was under 31.6 nM. It also gave an IC50 (second compound 1 µM) of under 31.6 nM, an IC50 (second compound 3.16 µM) of under 31.6 nM and an IC50 (second compound 10 µM) of under 31.6 nM. It also gave a viability, T/C [1] of 33.5%, a viability, T/C [2] of 34.9% and a viability, T/C [3] of 36.8%. It also gave a viability, T/C [4] of 36.1%, a viability, T/C [5] of 41.7% and a viability, T/C [6] of 34.7%. It also gave a viability, T/C [7] of 41.3%, a viability, T/C [8] of 36.5% and a viability, T/C [9] of 34.9%. The viability, T/C [10] was 37.8%, the viability, T/C [11] was 37.3% and the viability, T/C [12] was 33.7%. For the same compound, the viability, T/C [13] was 38.6%, the viability, T/C [14] was 36.4% and the viability, T/C [15] was 39.4%. For the same compound, the viability, T/C [16] was 32.9%, the viability, T/C [17] was 36.9% and the viability, T/C [18] was 33.4%. It also gave a viability, T/C [19] of 38.9%, a viability, T/C [20] of 36% and a viability, T/C [21] of 39.3%. It also gave a viability, T/C [22] of 31.7%, a viability, T/C [23] of 40% and a viability, T/C [24] of 35.7%. For the same compound, the viability, T/C [25] was 43.5%, the viability, T/C [26] was 34.6% and the viability, T/C [27] was 38%. It also gave a viability, T/C [28] of 30.8%, a viability, T/C [29] of 39.5% and a viability, T/C [30] of 31.2%. It also gave a viability, T/C [31] of 38.4%, a viability, T/C [32] of 37.8% and a viability, T/C [33] of 38%. For the same compound, the viability, T/C [34] was 32.8%, the viability, T/C [35] was 32% and the viability, T/C [36] was 32%.

`CC1COCCN1c1cc(C2(O)CC3CCC(C2)O3)c2cnn(-c3ccn[nH]3)c2n1` (stereo unspecified) + Nc1ccc(C#CCN(C(=O)Cc2ncc(C(F)(F)F)cc2C(F)(F)F)c2ccc(F)cc2)nn1 showed an IC50 (second compound 0.0316 µM) of 390 nM, an IC50 (second compound 0.1 µM) of 435 nM and an IC50 (second compound 0.316 µM) of 369 nM. The IC50 (second compound 1 µM) was 312 nM, the IC50 (second compound 3.16 µM) was 344 nM and the IC50 (second compound 10 µM) was 210 nM. It also gave a viability, T/C [1] of 82.7%, a viability, T/C [2] of 65.4% and a viability, T/C [3] of 54.9%. It also gave a viability, T/C [4] of 37.2%, a viability, T/C [5] of 29.7% and a viability, T/C [6] of 20.2%. The viability, T/C [7] was 74.5%, the viability, T/C [8] was 79.2% and the viability, T/C [9] was 51.6%. The viability, T/C [10] was 37.6%, the viability, T/C [11] was 31.9% and the viability, T/C [12] was 22%. The viability, T/C [13] was 73.2%, the viability, T/C [14] was 69.9% and the viability, T/C [15] was 49.1%. The viability, T/C [16] was 36.5%, the viability, T/C [17] was 28% and the viability, T/C [18] was 17.9%. For the same compound, the viability, T/C [19] was 85.9%, the viability, T/C [20] was 64.7% and the viability, T/C [21] was 48.5%. The viability, T/C [22] was 38.8%, the viability, T/C [23] was 28.7% and the viability, T/C [24] was 18.7%. For the same compound, the viability, T/C [25] was 79.1%, the viability, T/C [26] was 70.1% and the viability, T/C [27] was 46.6%. It also gave a viability, T/C [28] of 38.6%, a viability, T/C [29] of 29.1% and a viability, T/C [30] of 19.6%. It also gave a viability, T/C [31] of 71.5%, a viability, T/C [32] of 56.7% and a viability, T/C [33] of 47.8%. The viability, T/C [34] was 33%, the viability, T/C [35] was 26.7% and the viability, T/C [36] was 20.1%.
